According to patent publication US9326513B2, “Fungicidal compositions” (Syngenta Participations AG, priority 2011, dated 2016):
Where two headings read alike, the source gives them in different places. One block for each molecule: values may come before it.

Assays:
[1] = system: Mycosphaerella arachidis (y. Cercospora arachidicola); assay: Mycosphaerella arachidis (brown leaf spot of groundnut), PDB microtiter plate, visual after 5-6 days; type: cell-based
[2] = system: Puccinia recondita f. sp. tritici; assay: Puccinia recondita f. sp. tritici / wheat / leaf disc preventative (brown rust); type: in vivo; settings: foliar, compared to untreated control leaf disks, read-out: disease control
Excerpt: Puccinia recondita f. sp. tritici/Wheat/Leaf Disc Preventative (Brown Rust) Wheat leaf segments cv. Kanzler were placed on agar in multiwell plates (24-well format) and sprayed with the formulated test compound diluted in water. The leaf disks were inoculated with a spore suspension of the fungus 1 day after application.

[3] = system: Monographella nivalis (syn. Microdochium nivale, Fusarium nivale); assay: Monographella nivalis (snow mould, foot rot of cereals), PDB microtiter plate, visual after 72 hrs; type: cell-based; settings: applied alone
Botrytis cinerea = Botrytis cinerea (gray mould), PDB microtiter plate, visual after 72 hrs; type: cell-based; settings: for inhibition at 0.125 ppm: rate 0.125 ppm; for inhibition at 0.25 ppm: rate 0.25 ppm; for inhibition at 0.5 ppm: rate 0.5 ppm; for inhibition at 1.25 ppm: rate 1.25 ppm; for inhibition at 2.5 ppm: rate 2.5 ppm
Septoria tritici = Septoria tritici (leaf blotch), PDB microtiter plate, visual after 72 hrs; type: cell-based
[4] = Botrytis cinerea, single compound
[5] = Mycosphaerella arachidis, single compound, 0.00390625 ppm, read-out: Activity (%)
[6] = Mycosphaerella arachidis, single compound, 0.0078125 ppm, read-out: Activity (%)
[7] = Mycosphaerella arachidis, single compound, 0.015625 ppm, read-out: Activity (%)
[8] = Mycosphaerella arachidis, single compound, 0.03125 ppm, read-out: Activity (%)
[9] = Mycosphaerella arachidis, single compound, 0.0625 ppm, read-out: Activity (%)

Structure (SMILES): Cn1cc(C(=O)Nc2ccccc2C2CC2C2CC2)c(C(F)F)n1 (stereo not shown) [Sedaxan]
Activity (%) ([1]; single compound, 0.00390625 ppm): 0%
Activity (%) ([1]; single compound, 0.015625 ppm): 0%
Activity (%) ([1]; single compound, 0.03125 ppm): 0%
Activity (%) ([1]; single compound, 0.0625 ppm): 0%
Activity (%) ([1]; single compound, 0.125 ppm): 0%

melting point: 43 to 45 °C
Structure (SMILES): CCN(C)/C=N/c1cc(Br)c(OC2CCCc3ccc(-c4cccc(F)c4)cc32)nc1C (stereo not shown) [Q.137]
pest or weed control at 200 ppm [2]: ≥ 50%

Structure (SMILES): Cn1cc(C(=O)Nc2ccc(F)cc2-c2ccc(Cl)c(Cl)c2)c(C(F)F)n1 [Bixafen]
Activity (%) ([1]; single compound, 0.03125 ppm): 50%
Activity (%) ([1]; single compound, 0.0625 ppm): 70%
Activity (%) ([3]; 0.25 ppm): 20%

melting point: 61 to 63 °C
Structure (SMILES): CCN(C)/C=N/c1cc(Br)c(OCCc2cc(C)cc(C)c2)nc1C [Q.422]

Structure (SMILES): N#Cc1c[nH]cc1-c1cccc2c1OC(F)(F)O2 [Fludioxonil]
inhibition at 0.03125 ppm (Botrytis cinerea; Botrytis cinerea, read-out: Activity (%), alone, rate 0.03125 ppm): 0%
inhibition at 0.0625 ppm (Botrytis cinerea; Botrytis cinerea, read-out: Activity (%), alone, rate 0.0625 ppm): 70%
Activity (%) (Botrytis cinerea; alone, rate 0.0625 ppm): 50%
inhibition at 0.00390625 ppm ([1]; Mycosphaerella arachidis, read-out: Activity (%), single compound, 0.00390625 ppm): 0%
inhibition at 0.0078125 ppm ([1]; Mycosphaerella arachidis, read-out: Activity (%), single compound, 0.0078125 ppm): 0%
inhibition at 0.015625 ppm ([1]; Mycosphaerella arachidis, read-out: Activity (%), single compound, 0.015625 ppm): 0%
inhibition at 0.03125 ppm ([1]; Mycosphaerella arachidis, read-out: Activity (%), single compound, 0.03125 ppm): 0%
inhibition at 0.0625 ppm ([1]; Mycosphaerella arachidis, read-out: Activity (%), single compound, 0.0625 ppm): 0%
inhibition at 0.125 ppm ([1]; Mycosphaerella arachidis, read-out: Activity (%), single compound, 0.125 ppm): 0%
inhibition at 0.25 ppm ([1]; Mycosphaerella arachidis, read-out: Activity (%), single compound, 0.25 ppm): 0%
inhibition at 0.5 ppm ([1]; Mycosphaerella arachidis, read-out: Activity (%), single compound, 0.5 ppm): 70%
Activity (%) ([1]; single compound, 0.5 ppm): 50%
inhibition at 0.25 ppm (Septoria tritici; Zymoseptoria tritici, read-out: Activity (%)): 70%

Structure (SMILES): CC(Cc1ccc(C(C)(C)C)cc1)CN1C[C@@H](C)O[C@@H](C)C1 (stereo partly shown) [Fenpropimorph]
inhibition at 0.0625 ppm (Botrytis cinerea; Botrytis cinerea, alone, rate 0.0625 ppm, read-out: Activity (%)): 0%
inhibition at 0.125 ppm (Botrytis cinerea; Botrytis cinerea, alone): 0%
inhibition at 0.25 ppm (Botrytis cinerea; Botrytis cinerea, alone): 0%
inhibition at 0.5 ppm (Botrytis cinerea; Botrytis cinerea, alone): 70%
inhibition at 0.125 ppm (Botrytis cinerea; [4]): 0%
inhibition at 0.25 ppm (Botrytis cinerea; [4]): 0%
inhibition at 0.5 ppm (Botrytis cinerea; [4]): 70%
inhibition at 0.00390625 ppm [1, 5]: 20%
inhibition at 0.0078125 ppm [1, 6]: 20%
inhibition at 0.015625 ppm [1, 7]: 50%
inhibition at 0.03125 ppm [1, 8]: 50%
inhibition at 0.0625 ppm [1, 9]: 70%
inhibition at 0.0625 ppm ([3]; Monographella nivalis, 0.0625 ppm): 0%
inhibition at 0.125 ppm ([3]; Monographella nivalis, 0.125 ppm): 0%
inhibition at 0.25 ppm ([3]; Monographella nivalis, 0.25 ppm): 0%
inhibition at 0.5 ppm ([3]; Monographella nivalis, 0.5 ppm): 0%
inhibition at 2 ppm ([3]; Monographella nivalis, 2 ppm): 20%
inhibition at 0.0078125 ppm ([3]; Monographella nivalis, rate 0.0078125 ppm): 0%
inhibition at 0.015625 ppm ([3]; Monographella nivalis, rate 0.015625 ppm): 0%
inhibition at 0.03125 ppm ([3]; Monographella nivalis, rate 0.03125 ppm): 0%
inhibition at 0.0625 ppm ([3]; Monographella nivalis, rate 0.0625 ppm): 0%
inhibition at 0.125 ppm ([3]; Monographella nivalis, rate 0.125 ppm): 0%

Structure (SMILES): O=[N+]([O-])c1cc(C(F)(F)F)c(Cl)c([N+](=O)[O-])c1Nc1ncc(C(F)(F)F)cc1Cl [Fluazinam]
inhibition at 0.00390625 ppm [1, 5]: 0%
inhibition at 0.0078125 ppm [1, 6]: 0%
inhibition at 0.015625 ppm [1, 7]: 0%
inhibition at 0.03125 ppm [1, 8]: 0%
inhibition at 0.0625 ppm [1, 9]: 20%
inhibition at 0.015625 ppm (Septoria tritici; Zymoseptoria tritici, single compound, 0.015625 ppm): 0%
inhibition at 0.03125 ppm (Septoria tritici; Zymoseptoria tritici, single compound, 0.03125 ppm): 20%
inhibition at 0.0625 ppm (Septoria tritici; Zymoseptoria tritici, single compound, 0.0625 ppm): 70%

Structure (SMILES): CC(C)(C)[C@@H](O)[C@@H](Cc1ccc(Cl)cc1)n1cncn1 (racemic) [Paclobutrazol]
inhibition at 0.625 ppm (Botrytis cinerea; Botrytis cinerea, alone, rate 0.625 ppm): 0%
inhibition at 1.25 ppm (Botrytis cinerea; Botrytis cinerea, alone): 0%
inhibition at 2.5 ppm (Botrytis cinerea; Botrytis cinerea, alone, read-out: Activity (%)): 0%
inhibition at 1.25 ppm (Botrytis cinerea; [4]): 0%
inhibition at 2.5 ppm (Botrytis cinerea; Botrytis cinerea, single compound, read-out: Activity (%)): 0%
inhibition at 5 ppm (Botrytis cinerea; Botrytis cinerea, single compound, rate 5 ppm, read-out: Activity (%)): 70%
inhibition at 0.15625 ppm (Septoria tritici; Zymoseptoria tritici, single compound, 0.15625 ppm): 0%
inhibition at 0.3125 ppm (Septoria tritici; Zymoseptoria tritici, single compound, 0.3125 ppm): 20%
inhibition at 0.625 ppm (Septoria tritici; Zymoseptoria tritici, single compound, 0.625 ppm): 0%
inhibition at 1.25 ppm (Septoria tritici; Zymoseptoria tritici, single compound, 1.25 ppm): 0%
inhibition at 5 ppm (Septoria tritici; Zymoseptoria tritici, single compound, 5 ppm): 70%
inhibition at 10 ppm (Septoria tritici; Zymoseptoria tritici, single compound, 10 ppm): 70%
Activity (%) (Septoria tritici; single compound, 5 ppm): 50%
inhibition at 0.625 ppm ([3]; Monographella nivalis, 0.625 ppm): 0%
inhibition at 1.25 ppm ([3]; Monographella nivalis, 1.25 ppm): 0%
inhibition at 2.5 ppm ([3]; Monographella nivalis, 2.5 ppm): 0%
inhibition at 5 ppm ([3]; Monographella nivalis, 5 ppm): 0%
inhibition at 10 ppm ([3]; Monographella nivalis, 10 ppm): 0%
inhibition at 0.15625 ppm ([3]; Monographella nivalis, rate 0.15625 ppm): 0%
inhibition at 0.3125 ppm ([3]; Monographella nivalis, rate 0.3125 ppm): 0%
inhibition at 0.625 ppm ([3]; Monographella nivalis, rate 0.625 ppm): 0%
inhibition at 1.25 ppm ([3]; Monographella nivalis, rate 1.25 ppm): 0%
